Measured values as given in paper PMC8179437 (Chemical Science, 2021).

Assays:
TDP1 [1] = target: T1, TDP1 (Homo sapiens, UniProt Q9NUW8); assay: TDP1 Lineweaver–Burk analysis; assay type: biochemical
TDP1 [2] = target: T1, TDP1; assay: TDP1 gel-based in vitro assay; assay type: biochemical; conditions: Table 1 and main text

T1 sequence (Q9NUW8 whole entry): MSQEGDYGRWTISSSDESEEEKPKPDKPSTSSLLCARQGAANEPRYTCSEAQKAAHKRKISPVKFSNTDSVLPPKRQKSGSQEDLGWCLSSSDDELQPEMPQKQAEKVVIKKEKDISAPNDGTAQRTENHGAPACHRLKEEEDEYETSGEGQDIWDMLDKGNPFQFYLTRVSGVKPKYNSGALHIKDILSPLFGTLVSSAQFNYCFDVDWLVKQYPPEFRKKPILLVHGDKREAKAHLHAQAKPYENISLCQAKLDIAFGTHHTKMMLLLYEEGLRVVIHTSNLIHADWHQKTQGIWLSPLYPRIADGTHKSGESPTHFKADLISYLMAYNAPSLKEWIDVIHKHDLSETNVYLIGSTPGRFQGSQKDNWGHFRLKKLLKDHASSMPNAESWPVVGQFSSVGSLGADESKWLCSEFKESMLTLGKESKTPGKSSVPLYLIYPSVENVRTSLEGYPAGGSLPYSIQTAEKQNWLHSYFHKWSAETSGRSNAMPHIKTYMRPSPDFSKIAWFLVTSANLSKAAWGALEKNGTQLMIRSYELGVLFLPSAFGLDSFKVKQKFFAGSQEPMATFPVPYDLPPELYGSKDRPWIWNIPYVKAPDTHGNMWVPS

mode of inhibition (TDP1 [1])	IC50 (TDP1 [2]) [µM]	SMILES
competitive	–	O=C(O)c1ccc(Nc2c(-c3ccccc3)nc3ccccn23)cc1 [Compound 8a, 4-((2-Phenylimidazo[1,2-a]pyridin-3-yl)amino)benzoic acid]
–	> 100	O=C(O)c1ccc(Cn2c(-c3ccccc3)nc3ccccc32)cc1 [Compound 9a, 4-((2-Phenyl-1H-benzo[d]imidazol-1-yl)methyl)benzoic acid]
–	> 100	c1ccc(Nc2c(-c3ccccc3)nc3ccccn23)cc1 [Compound 6t, N,2-Diphenylimidazo[1,2-a]pyridin-3-amine]
competitive	–	O=C(O)c1ccc(Nc2c(-c3ccccc3)nc3cnccn23)cc1 [Compound 7b, 4-((2-Phenylimidazo[1,2-a]pyrazin-3-yl)amino)benzoic acid]
–	> 100	O=C(O)c1ccc(Nc2c(-c3ccc(C(=O)O)cc3)nc3ccccn23)cc1 [Compound 8h, 4-(3-((4-Carboxyphenyl)amino)imidazo[1,2-a]pyridin-2-yl)benzoic acid]
competitive	–	O=C(O)c1ccc(Nc2c(-c3ccccc3)nc3cnccn23)cc1C(=O)O [Compound 10a, 4-((2-Phenylimidazo[1,2-a]pyrazin-3-yl)amino)phthalic acid]
–	> 100	O=C(O)c1ccc(Cn2c(-c3ccccc3)cc3ccccc32)cc1 [Compound 9b, 4-((2-Phenyl-1H-indol-1-yl)methyl)benzoic acid]
competitive	–	O=C(O)c1ccc(Nc2c(-c3ccccc3)nc3ccccn23)cc1C(=O)O [Compound 10b, 4-((2-Phenylimidazo[1,2-a]pyridin-3-yl)amino)phthalic acid]
–	> 100	O=C(O)c1ccc(Nc2c(-c3ccc(O)cc3)nc3ccccn23)cc1 [Compound 8f, 4-((2-(4-Hydroxyphenyl)imidazo[1,2-a]pyridin-3-yl)amino)benzoic acid]
–	9.95	CS(=O)(=O)c1ccc2nc(-c3ccc(-c4ccccc4)cc3)c(Nc3ccc(C(=O)O)cc3)n2c1 [Compound 8r, 4-((2-([1,1'-Biphenyl]-4-yl)-6-(methylsulfonyl)imidazo[1,2-a]pyridin-3-yl)amino)benzoic acid]

SMILES	mode of inhibition (TDP1 [1])	IC50 (TDP1 [2]) [µM]
CS(=O)(=O)c1ccc2nc(-c3ccccc3)c(Nc3ccc(C(=O)O)cc3)n2c1 [Compound 8q, 4-((6-(Methylsulfonyl)-2-phenylimidazo[1,2-a]pyridin-3-yl)amino)benzoic acid]	–	1.8
